Experimental data taken from patent US10385108B2, “Peptide analogs of alpha-melanocyte stimulating hormone” (Genzyme Corporation, priority 2008, dated 2019).
Where two headings read alike, the source gives them in different places.

How the values were obtained:
B10.RIII mice = tested on: B10.RIII mice
Method: Female B10.RIII were injected subcutaneously at two sites (between shoulder blades and in pelvic region) with a total of 200 μg interphotoreceptor binding protein peptide (IRBP) 161-180 (New England Peptide; Fitchburg, Mass.), respectively in 2 mg/ml complete Freund's adjuvant (CFA; Sigma, St. Louis, Mo.) with mycobacterium tuberculosis H37Ra (Difco, Detroit, Mich.).
The eyes of mice are dilated using one or two drops of Mydriacyl 1% (Alcon; Humacao, Puerto Rico) and rested in a darkened room for approximately 5 min. Mice are manually restrained and the retinas of both eyes are visualized using an indirect ophthalmoscope with a 78 diopter lens. The eyes are scored for inflammation using a progressive scoring system between 0-5. Score 0: Normal retina. Score 1: Vascular inflammation proximal to the optic nerve. Score 2: <5 inflammatory lesions confined to one quadrant of the eye. Score 3: >5 inflammatory lesions in more than one quadrant of the eye. Score 4: Inflammatory lesions are contiguous. Score 5: Retinal detachment. Whole eyes from mice were harvested and placed in PBS. The eyes were embedded in OCT media for frozen fixation. 5-μm sections were cut through the papillary-optic nerve plane and stained with hematoxylin and eosin.
Uveitis was induced in B10.RIII mice with an injection of IRBP 161-180 and CFA.
Current forms of therapy for uveitis include corticosteroids and immunosuppressive agents. […] Uveitis was induced in B10.RIII mice with IRBP161-180 and CFA injections. […] Mice were treated daily for 21 days.
EAU was induced in female B10.RIII mice with IRBP 161-180.
Uveitis was induced in B10.RIII mice with IRBP161-180 and CFA injections. […] Individual weights of the mice were recorded at 4 timepoints throughout the course of disease.
B10.RIII mice were injected with IRBP161-180 and CFA to induce uveitis. […] Treatment was initiated at peak time of disease when mice reached eye scores of 4 which included inflammatory lesions throughout the posterior segment of the eye and possible hemorrhaging.

C57BL/6 mice = assay: MOG35-55 induced EAE model; format: in vivo
[1] = Peptide stability in plasma or PBS in vitro at 37° C.; format: in vitro ADME; conditions: 24 hours
Method: The stability of RI-α-MSH was determined by incubation in plasma or PBS in vitro at 37° C. for 24 hours. Aliquots were taken and proteins precipitated with 2 volumes of acetonitrile. α-MSH was used as a control and bradykinin as an internal standard. After centrifugation, samples were frozen at −80° C. until LC/MS/MS (MRM) analysis using a C18 column separation and positive electrospray ionization mode.

MC1R = MC1R (Homo sapiens, UniProt Q01726); assay: Competitive binding with 125I-NDP-MSH, HEK293 membrane preparations, MC1R;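 further: Read-out: receptor-bound radioligand retained by filtration and counted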
MC1R, sequence (Q01726 whole entry): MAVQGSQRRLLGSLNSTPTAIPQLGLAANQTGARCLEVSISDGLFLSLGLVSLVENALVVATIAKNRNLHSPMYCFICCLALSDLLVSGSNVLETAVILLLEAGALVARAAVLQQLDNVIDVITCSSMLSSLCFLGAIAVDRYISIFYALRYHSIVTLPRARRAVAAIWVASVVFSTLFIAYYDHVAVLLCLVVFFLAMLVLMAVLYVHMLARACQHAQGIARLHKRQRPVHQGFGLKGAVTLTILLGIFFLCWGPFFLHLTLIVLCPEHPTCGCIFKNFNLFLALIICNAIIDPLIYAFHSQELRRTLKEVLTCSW
Method: (§1) Binding analysis was done by Cerep laboratories (Paris, France) with coded samples.
(§2) The mixtures were filtered through 96-well GFC filters (Millipore, Billerica, Mass.), washed 3 times with binding buffer without BSA, dried and counted.
(§3) A competitive binding assay using a MCR panel including MCR 1, 3, 4, and 5 was performed.

MC3R = MC3R (Homo sapiens, UniProt P41968); assay: Competitive binding with 125I-NDP-MSH, HEK293 membrane preparations, MC3R
MC3R, sequence (P41968 whole entry): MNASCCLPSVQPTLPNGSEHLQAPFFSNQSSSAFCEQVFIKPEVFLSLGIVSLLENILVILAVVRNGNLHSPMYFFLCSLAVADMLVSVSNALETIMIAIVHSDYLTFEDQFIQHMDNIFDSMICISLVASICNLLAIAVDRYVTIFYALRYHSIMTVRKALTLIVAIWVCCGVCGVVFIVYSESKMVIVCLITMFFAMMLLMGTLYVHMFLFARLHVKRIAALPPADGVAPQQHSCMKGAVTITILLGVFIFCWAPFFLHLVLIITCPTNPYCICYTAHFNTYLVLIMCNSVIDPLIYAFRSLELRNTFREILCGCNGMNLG
Method: as §1, §2, §3

MC5R = MC5R (Homo sapiens, UniProt P33032); assay: Competitive binding with 125I-NDP-MSH, HEK293 membrane preparations, MC5R
MC5R, sequence (P33032 whole entry): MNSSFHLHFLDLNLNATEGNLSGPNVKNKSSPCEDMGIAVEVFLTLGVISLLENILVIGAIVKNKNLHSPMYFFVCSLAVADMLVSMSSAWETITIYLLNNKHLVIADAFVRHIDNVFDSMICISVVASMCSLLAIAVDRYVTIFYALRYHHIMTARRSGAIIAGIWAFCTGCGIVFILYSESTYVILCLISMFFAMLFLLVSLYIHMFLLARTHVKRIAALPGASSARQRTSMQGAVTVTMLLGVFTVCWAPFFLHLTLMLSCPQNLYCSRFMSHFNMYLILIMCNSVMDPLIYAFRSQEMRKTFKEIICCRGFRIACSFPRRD
Method: as §1, §2, §3

[2] = Example 10, 100 μg/mouse i.p. daily from day 10

stability in PBS (in words) [1]: stable both in PBS and plasma
stability in plasma (in words) ([1]; in vitro): no detectable degradation over 24 hours
affinity for MC1R lower than that of the native MSH peptide (MC1R): 11 fold
Ki (MC1R; Ki MC1R, competition with 125I-NDP-MSH): 0.0046 ± 0.0013 µM
binding to MCR-1 (in words) (MC1R; MCR panel 1, 3, 4, 5): bind only to MCR-1
Ki (MC3R): > 30 µM
binding to MCR-3 (in words) (MC3R; MCR panel 1, 3, 4, 5): bind only to MCR-1
Ki (MC5R; Ki MC5R, competition with 125I-NDP-MSH, cells noted in μM): ~25 µM
binding to MCR-5 (in words) (MC5R; MCR panel 1, 3, 4, 5): bind only to MCR-1
SMILES: CSCC[C@@H](NC(=O)[C@@H](CCC(=O)O)NC(=O)[C@@H](Cc1c[nH]cn1)NC(=O)[C@@H](Cc1ccccc1)NC(=O)[C@@H](CCCNC(=N)N)NC(=O)[C@@H](Cc1c[nH]c2ccccc12)NC(=O)CNC(=O)[C@@H](CCCCN)NC(=O)[C@H]1CCCN1C(=O)[C@H](NC(C)=O)C(C)C)C(=O)N[C@H](CO)C(=O)N[C@H](Cc1ccc(O)cc1)C(=O)N[C@H](CO)C(N)=O [RI-MSH, vpkGwrfhemsys]
uveitis course (in words) (B10.RIII mice; 3 μg/mouse i.p. daily from eye scores of 4): did not reduce or inhibit disease
uveitis course (in words) (B10.RIII mice; 10 μg/mouse i.p. daily from eye scores of 4): rapidly ameliorated uveitis
mean clinical eye scores vs scrambled peptide (in words) (B10.RIII mice; 100 μg/mouse i.p. daily for 13 days from eye scores 2-3, days 15, 21 and 23): significant reduction
uveitis course (in words) (B10.RIII mice; 100 μg/mouse i.p. daily from eye scores of 4): rapidly ameliorated uveitis
mice with individual maximum eye scores ≤1 (B10.RIII mice; 100 μg/mouse i.p. daily, day 23 after disease induction): 75%
efficacy in uveitis, treatment at onset of disease (in words) (B10.RIII mice; 100 μg/mouse i.p., from eye score 1, data not shown): had efficacy in uveitis
mean clinical eye scores vs PBS (in words) (B10.RIII mice; 100 μg/mouse i.v. daily from eye scores of 2): significant reduction of mean clinical eye scores
eye score in retina images (median of group) (B10.RIII mice; 100 μg/mouse i.v. daily from late stage, day 13 after start of treatment): 1
histological examination of the eyes (in words) (B10.RIII mice; 100 μg/mouse i.v. daily, 10 days after start of treatment): reduced pathology in the eye
mice with eye scores of 3 or greater (B10.RIII mice; 100 μg/mouse i.v. daily, day 13 after start of treatment): 2 of the 11
mice with a maximum eye score of 3 or greater (B10.RIII mice; 100 μg/mouse i.v. daily, day 16, four days after start of treatment): 0 of the 8
spinal cord histopathology (in words) (C57BL/6 mice; 100 μg/mouse i.p. daily from day 10, day 24): lack focal area of inflammation
TNF-α mRNA in spleen vs PBS (in words) (C57BL/6 mice; Day 1 and Day 4 of treatment): no significant change
IL-10 mRNA in spleen vs PBS (in words) (C57BL/6 mice; Day 7 of treatment): reduced
maximum percent incidence of disease (C57BL/6 mice; [2]): 20%
mean clinical disease score vs PBS (in words) (C57BL/6 mice; [2]): significant reduction in the mean clinical disease score
mean clinical scores (in words) (C57BL/6 mice; Example 11, 30 μg/mouse i.p. daily from day 10): did not have a significant effect
maximum percent incidence of disease (C57BL/6 mice; Example 11, dexamethasone 2 mg/kg): 35%
mean clinical disease score vs PBS (in words) (C57BL/6 mice; Example 11, peptides 100 μg/mouse, dexamethasone 2 mg/kg, i.p. daily from day 10): reduction in the mean clinical disease score
TNF-α mRNA in spleen vs PBS (in words) (C57BL/6 mice; after 7 days of daily treatment): significantly decreased
IL-10 mRNA in spleen vs PBS (in words) (C57BL/6 mice; earlier timepoints (Day 1 and 4)): no difference
